From US8119805B2, “Substituted disulfonamide compounds” (Gruenenthal GmbH, priority 2008, dated 2012)
Where a name gives a salt, the structure may show the parent alone.

Tests used:
[1] = biological target: T1, B1R receptor of the rat (rB1R) (Rattus norvegicus, UniProt P97583); experiment: Functional investigation on the bradykinin 1 receptor (B1R), FLIPR Ca2+ assay, rB1R cells; assay type: cell-based; conditions: test substance 10 μM; CHO K1 cells transfected with rat B1R gene; Fluo-4 Ca2+ signal; agonist Des-Arg9-bradykinin at EC80; % of maximum achievable inhibition; read-out: B1R antagonism, rat [10 μM] % inhibition
T1 construct: expressed in transfected cells; host or cells: CHO K1 cells
T1 sequence (P97583 1-337): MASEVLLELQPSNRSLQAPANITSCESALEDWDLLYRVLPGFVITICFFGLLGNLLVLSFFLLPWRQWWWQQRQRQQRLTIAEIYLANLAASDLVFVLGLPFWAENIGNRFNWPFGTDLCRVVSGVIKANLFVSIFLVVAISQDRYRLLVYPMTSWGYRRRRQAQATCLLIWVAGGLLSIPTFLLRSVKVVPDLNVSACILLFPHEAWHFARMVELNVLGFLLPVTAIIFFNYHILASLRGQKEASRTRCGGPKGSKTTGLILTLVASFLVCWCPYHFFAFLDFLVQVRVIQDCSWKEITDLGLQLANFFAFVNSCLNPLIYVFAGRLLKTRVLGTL
Procedure, shortened: (§1)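 CHO K1 cells stably expressing human or rat B1R, Fluo-4 loaded, read by FLIPR (λex 488, λem 540 nm). Test compound (10 μM) first gave % activation against Lys-Des-[MUT]-bradykinin ≥50 nM (hB1R) or Des-[MUT]-bradykinin 10 μM (rB1R). After 10–20 min, agonist at EC80 was added; % inhibition or IC50 from concentration series, n=2–3, N≥2.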

[2] = biological target: T2, human B1R receptor (hB1R) (Homo sapiens, UniProt P46663); experiment: Functional investigation on the bradykinin 1 receptor (B1R), FLIPR Ca2+ assay, hB1R cells; assay type: cell-based; conditions: test substance 10 μM; CHO K1 cells transfected with human B1R gene; Fluo-4 Ca2+ signal; agonist Lys-Des-Arg9-bradykinin at EC80; % of maximum achievable inhibition; read-out: B1R antagonism, human [10 μM] % inhibition
T2 construct: expressed in transfected cells; host or cells: CHO K1 cells
T2 sequence (P46663 1-353): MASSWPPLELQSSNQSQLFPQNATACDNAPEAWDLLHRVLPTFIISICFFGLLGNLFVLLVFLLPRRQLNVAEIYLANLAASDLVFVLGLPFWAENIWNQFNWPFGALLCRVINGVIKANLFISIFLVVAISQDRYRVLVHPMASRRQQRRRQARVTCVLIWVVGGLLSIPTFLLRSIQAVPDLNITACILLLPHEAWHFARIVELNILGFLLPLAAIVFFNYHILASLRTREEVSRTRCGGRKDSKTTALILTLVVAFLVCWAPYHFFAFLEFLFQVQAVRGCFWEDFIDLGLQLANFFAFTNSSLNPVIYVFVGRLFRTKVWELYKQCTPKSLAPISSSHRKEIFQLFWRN
Procedure, shortened: as §1

inhibition at 10 µM [1] | inhibition at 10 µM [2] | Compound
93% | 91% | O=S(=O)(CCC[C@@H]1CCCN1S(=O)(=O)c1ccc(F)c2ccccc12)N1CCC2(CCN(c3ccncc3)CC2)CC1 [Example 78, 3-(3-((S)-1-(4-Fluoronaphthalen-1-ylsulfonyl)pyrrolidin-2-yl)propylsulfonyl)-9-(pyridin-4-yl)-3,9-diazaspiro[5.5]undecane]
99% | 89% | Cc1cc(F)cc(C)c1S(=O)(=O)N1CCC[C@H]1CCCS(=O)(=O)N1CCC(Oc2ccncc2)CC1 [Example 73, (S)-4-(1-(3-(1-(4-Fluoro-2,6-dimethylphenylsulfonyl)pyrrolidin-2-yl)propylsulfonyl)piperidin-4-yloxy)pyridine]
102% | 100% | COc1cc(C)c(S(=O)(=O)N2CCCCC2CCCS(=O)(=O)N2CCC3(CC2)CCC(OCCN2CCCC2)(c2cccnc2)CC3)c(C)c1 (stereo not shown) [Example 87, 3-(3-(1-(4-Methoxy-2,6-dimethylphenylsulfonyl)piperidin-2-yl)propylsulfonyl)-9-(pyridin-3-yl)-9-(2-(pyrrolidin-1-yl)ethoxy)-3-azaspiro[5.5]undecane]
39% | 30% | O=S(=O)(CCC[C@@H]1CCCN1S(=O)(=O)c1ccc(C(F)(F)F)cc1Cl)N1CCC(Oc2ccncc2)CC1 [Example 71, (S)-4-(1-(3-(1-(2-Chloro-4-(trifluoromethyl)phenylsulfonyl)pyrrolidin-2-yl)propylsulfonyl)piperidin-4-yloxy)pyridine]

The remaining lines, values behind:

Compound | inhibition at 10 µM [1] | inhibition at 10 µM [2]
COc1cc(C)c(S(=O)(=O)N2CCCC2CCCCS(=O)(=O)N2CCN(C3CCN(C)CC3)CC2)c(C)c1C (stereo not shown) [Example 7, 1-(4-(1-(4-Methoxy-2,3,6-trimethylphenylsulfonyl)pyrrolidin-2-yl)butylsulfonyl)-4-(1-methylpiperidin-4-yl)piperazine] | 58% | 38%
COc1cc(C)c(S(=O)(=O)N2CC(CCS(=O)(=O)N3CCC(CCN4CCCC4)CC3)CO2)c(C)c1C (stereo not shown) [Example 15] | 18% | 97%
CN1CCC(N2CCN(S(=O)(=O)CCCCC3CCCN3S(=O)(=O)c3c(Cl)cc(C(F)(F)F)cc3Cl)CC2)CC1 (stereo not shown) [Example 9, 1-(4-(1-(2,6-Dichloro-4-(trifluoromethyl)phenylsulfonyl)pyrrolidin-2-yl)butylsulfonyl)-4-(1-methylpiperidin-4-yl)piperazine] | 30% | 58%
O=S(=O)(CCC1CCN(S(=O)(=O)c2ccc(Cl)c(Cl)c2)C1)N1CCN(c2ccncc2)CC1 (stereo not shown) [Example 24, 1-(2-(1-(3,4-Dichlorophenylsulfonyl)pyrrolidin-3-yl)ethylsulfonyl)-4-(pyridin-4-yl)piperazine hydrochloride] | 33% | 62%
CN1CCC(N2CCN(S(=O)(=O)CCC[C@@H]3CCCN3S(=O)(=O)c3cccc(C(F)(F)F)c3)CC2)CC1 [Example 35, (S)-1-(1-Methylpiperidin-4-yl)-4-(3-(1-(3-(trifluoromethyl)phenylsulfonyl)pyrrolidin-2-yl)propylsulfonyl)piperazine] | 91% | 23%
Cc1cccc(Cl)c1S(=O)(=O)N1CCC[C@H]1CCCS(=O)(=O)N1CC(N2[C@@H]3CC[C@H]2C[C@H](Oc2ccncc2)C3)C1 [Example 81, (1R,3s,5S)-8-(1-(3-((S)-1-(2-Chloro-6-methylphenylsulfonyl)pyrrolidin-2-yl)propylsulfonyl)azetidin-3-yl)-3-(pyridin-4-yloxy)-8-azabicyclo[3.2.1]octane] | 98% | 96%
Cc1cccc(Cl)c1S(=O)(=O)N1CCC[C@H]1CCCS(=O)(=O)N1[C@@H]2CC[C@H]1C[C@H](Oc1ccncc1)C2 [Example 55, (1R,3R,5S)-8-(3-((S)-1-(2-Chloro-6-methylphenylsulfonyl)pyrrolidin-2-yl)propylsulfonyl)-3-(pyridin-4-yloxy)-8-azabicyclo[3.2.1]octane] | 98% | 98%
